{
  "source": "patent US20160143876A1",
  "about": "“MAINTENANCE THERAPY REGIME/REGIMEN FOR THE TREATMENT OF ACNE” (GALDERMA RESEARCH & DEVELOPMENT, priority 2008, published 2016)",
  "origin": "cited, not measured here",
  "key": {"[1]": {"settings": "applied as monotherapy"}, "acne": {"test_system": "acne", "settings": "in vivo"}},
  "data": [
    {"smiles": "COc1ccc(-c2ccc3cc(C(=O)O)ccc3c2)cc1C12CC3CC(CC(C3)C1)C2", "note": "[Adapalene, 6-[3-(1-adamantyl)-4-methoxyphenyl]-2-naphtoic acid]", "values": [
      {"measurement": "Tolerability profile compared to other topical retinoids", "setting": "[1]", "result": "more favorable tolerability profile"}
    ]},
    {"smiles": "CC1=C(/C=C/C(C)=C/C=C/C(C)=C\\C(=O)O)C(C)(C)CCC1", "note": "[isotretinoin]", "values": [
      {"measurement": "Patients who relapse after treatment", "setting": "acne", "result": "up to 21%"}
    ]}
  ]
}
